# Target: Stromelysin-1 (Homo sapiens, UniProt P08254)
# Assay: Inhibition of matrix metalloprotease-3 (MMP-3)
# Chain of Stromelysin-1 (P08254 whole entry): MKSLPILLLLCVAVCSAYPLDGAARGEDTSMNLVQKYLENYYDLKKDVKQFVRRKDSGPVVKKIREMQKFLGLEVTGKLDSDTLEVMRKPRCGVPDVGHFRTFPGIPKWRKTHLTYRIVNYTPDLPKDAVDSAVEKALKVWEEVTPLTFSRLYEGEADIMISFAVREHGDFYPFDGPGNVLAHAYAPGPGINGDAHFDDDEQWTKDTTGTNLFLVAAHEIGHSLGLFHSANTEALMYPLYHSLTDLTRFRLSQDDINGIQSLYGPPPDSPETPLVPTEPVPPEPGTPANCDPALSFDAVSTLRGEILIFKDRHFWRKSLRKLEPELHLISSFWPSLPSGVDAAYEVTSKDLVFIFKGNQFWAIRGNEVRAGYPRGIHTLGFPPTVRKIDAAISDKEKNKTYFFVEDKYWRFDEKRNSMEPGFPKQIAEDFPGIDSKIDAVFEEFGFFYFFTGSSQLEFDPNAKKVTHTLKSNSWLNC
row,Structure (SMILES),IC50 [µM]
1,CC(C)C[C@H](CC(=O)NO)C(=O)N1NCCC[C@H]1C(=O)O,0.6
2,CC(C)C[C@H](CC(=O)NO)C(=O)N1CCCCN1,9.67
3,COC[C@@H]1CCCNN1C(=O)[C@@H](CC(=O)NO)CC(C)C,20.4
4,CC(C)C[C@H](CC(=O)NO)C(=O)N1NCCC[C@H]1CO,2.7
5,CCCCC[C@H](CC(=O)NO)C(=O)N1NCCC[C@H]1C(=O)N[C@@H](C(=O)CC)C(C)CC (stereo partly specified),0.3
6,COC(=O)[C@@H]1CCCNN1C(=O)[C@@H](CC(=O)NO)CC(C)C,0.81

# Source: ChEMBL document CHEMBL1152052, “Probing the P3 pocket of stromelysin with piperazic acid analogs” (Bioorg Med Chem Lett, 1995)
